Data as given in patent publication US20110236359A1 (priority 2007, published 2011).
Converted amounts (≈) assume the structure as drawn. Read-outs that look alike come from different tables or passages of the source. Positions of bridges follow the written chain, without caps; N, C: chain ends. Non-standard residues stand in square brackets, D forms with d. Residues, ends and D or L forms follow the SMILES beside them. *: point of attachment. Ileψ(thiazoline)Cys = CC[C@H](C)[C@H](N)C1=N[C@H](C(=O)*)CS1; dOrn = NCCC[C@@H](N)C(=O)O

How the values were obtained:
[1] = test system: Lactobacillus rhamnosus GG (ATCC 53103); assay: Antibiotic MIC plates (resistance profile); type: cell-based; conditions: median of two repetitions
Description: (§1) The protocol was adapted from Delgado et al. (2005). Minimum Inhibitory Concentration (MIC) Plate (# GPN3F) and Anaerobe MIC Plate (# AN02B) were used to determine the antibiotic sensitivity and resistance profile of MM19 and MM33 according to the instructions of the manufacturer (Trek Diagnostic Systems; Nova Century, Burlington, ON, Canada).
(§2) Lactococcus lactis subsp. lactis MM19, Pediococcus acidilactici MM33 and Lactobacillus rhamnosus GG (ATCC 53103) from frozen glycerol stock were first inoculated in Lactobacilli MRS and incubated at 37° C. for 18 h. 100 μl of this culture were further incubated under the same conditions. This second culture was then inoculated on a MRS agar plate and incubated at 37° C. for 48 h under anaerobic conditions using GasPak Plus system (BD BBL, Sparks, Md., USA).

[2] = test system: Lactococcus lactis subsp. lactis MM19; assay: Antibiotic MIC plates (resistance profile); type: cell-based; conditions: MM19, median of two repetitions
Description: as §1, §2

[3] = test system: Pediococcus acidilactici MM33; assay: Antibiotic MIC plates (resistance profile); type: cell-based; conditions: median of two repetitions
Description: as §1, §2

[4] = test system: vancomycin-resistant Enterococcus (VRE); assay: VRE intestinal colonization (infection) model; type: in vivo, CF-1 mice
Description: The tubes containing fresh stool samples, collected from individual mice, were weighted, so that the weight of the feces could be deduced. Then, all the feces were diluted in […] of sterile saline, homogenized with a pestle, and serially diluted 10-fold in 0.1% peptone water. Finally, […] of each dilution were inoculated on the following media: MRS agar for detection of total lactic acid bacteria (LAB), Rogosa SL agar for selective detection of Lactobacillus spp., Reinforced Clostridium Medium (RCM) for quantification of total anaerobic and mesophilic bacteria, Baird-Parker agar (BPA) for selective detection of Staphylococcus spp., MacConkey agar for selective enumeration of Enterobacteriaceae, Enterococcosel agar for selective quantification of total Enterococcus spp. and finally Enterococcosel agar+20 μg/ml of vancomycin (Sigma) for detection and enumeration of VRE. A volume of 100 μl of the undiluted sample was also plated. MRS, Rogosa and RCM plates were incubated in anaerobic jars at 37° C. for 72 h while BPA, MacConkey and both Enterococcosel agar plates were incubated under aerobic conditions at 37° C. for 48 h. When negative results were obtained for Enterococcosel agar+20 μg/ml of vancomycin after 48 h of incubation, the plates were allowed to incubate for another 24 h. For statistical purposes, a value in CFU per gram that was based upon the weight of individual specimens was assigned for faeces without microorganisms.
A VRE intestinal colonization (infection) model was adapted from Donskey et al. 25-30 g CF-1 female mice (Charles River) were used. Daily subcutaneous administration of clindamycin (1.4 mg/d) for five days was used to disrupt the intestinal microbiota to induce VRE infection. Three days after the end of clindamycin administration, gastric inoculation of 250 μl of an overnight culture of VRE in BHI broth was used to infect the mice. Approximately 10^8 viable VRE was administered to the mice. Since the beginning of the antibiotic therapy, all groups of LAB-treated mice received once daily […] of 10^10 CFU/ml of Lc. lactis subsp. lactis MM19, P. acidilactici MM33 or P. acidilactici MM33A previously washed twice in sterile PBS. The mice received the LAB until the eighth day after the infection. Bacitracin (Sigma) antibiotic was administrated orally once daily during three days following the mice infection with VRE as 600 units/d diluted in […] of sterile PBS. This treatment was then discontinued and replaced by PBS. Stool samples were collected before the antibiotic administration and 1, 3, 6, 8 and 12 days after the VRE infection. Fecal concentrations of total culturable VRE were analyzed using selective media. This experiment was repeated twice using a total of eight mice per experimental group.

[5] = Lacticaseibacillus rhamnosus, ATCC53103, L. rhamnosus GG, GPN3F plate, read-out: MIC
[6] = Lactococcus lactis, GPN3F plate, read-out: MIC
[7] = Pediococcus acidilactici, MM33, MM33, GPN3F plate, read-out: MIC
[8] = Lacticaseibacillus rhamnosus, ATCC53103, L. rhamnosus GG, ANO2 plate, read-out: MIC
[9] = Lactococcus lactis, ANO2 plate, read-out: MIC
[10] = Pediococcus acidilactici, MM33, MM33, ANO2 plate, read-out: MIC

Compound	MIC [1, 5] [µg/mL]	MIC [2, 6] [µg/mL]	MIC [3, 7] [µg/mL]	MIC [1, 8] [µg/mL]	MIC [2, 9] [µg/mL]	MIC [3, 10] [µg/mL]	also measured
C[C@H]1COc2c(N3CCN(C)CC3)c(F)cc3c(=O)c(C(=O)O)cn1c23 [LEVO, Levofloxacin]	2 to 4 (≈ 5.53 to 11.1 µM)	0.5 (≈ 1.38 µM)	> 8	–	–	–	–
CC1(C)S[C@@H]2[C@H](NC(=O)[C@H](N)c3ccccc3)C(=O)N2[C@H]1C(=O)O [AMP, Ampicillin]	1 (≈ 2.86 µM)	0.12 to 0.25 (≈ 0.343 to 0.715 µM)	2 (≈ 5.72 µM)	1 (≈ 2.86 µM)	< 0.5	4 (≈ 11.4 µM)	–
CCC[C@@H]1C[C@@H](C(=O)N[C@@H]([C@H]2O[C@H](SC)[C@H](O)[C@@H](O)[C@H]2O)[C@H](C)Cl)N(C)C1 [CLI, Clindamycin]	< 0.12	0.25 (≈ 0.588 µM)	< 0.12	0.5 (≈ 1.18 µM)	0.5 (≈ 1.18 µM)	< 0.25	–
Amoxicillin/Clavulanic acid [AUG]	–	–	–	–	–	–	MIC ([3]; MM33, ANO2 plate): 4/2
CC[C@H]1OC(=O)[C@H](C)[C@@H](O[C@H]2C[C@@](C)(OC)[C@@H](O)[C@H](C)O2)[C@H](C)[C@@H](O[C@@H]2O[C@H](C)C[C@H](N(C)C)[C@H]2O)[C@](C)(O)C[C@@H](C)C(=O)[C@H](C)[C@@H](O)[C@]1(C)O [ERY, Erythromycin]	< 0.25	< 0.25	< 0.25	–	–	–	–
CC1(C)S[C@@H]2[C@H](NC(=O)[C@H](NC(=O)N3CCN(S(C)(=O)=O)C3=O)c3ccccc3)C(=O)N2[C@H]1C(=O)O [MEZ, Mezlocillin]	–	–	–	< 4	< 4	8 (≈ 14.8 µM)	–
Piperacillin/Tazobactam [P/T]	–	–	–	–	–	–	MIC ([1]; L. rhamnosus GG, ANO2 plate): 1/4; MIC ([2]; ANO2 plate): 2/4; MIC ([3]; MM33, ANO2 plate): 8/4
C[C@@H](O)[C@H]1C(=O)N2C(C(=O)O)=C(SCCN=CN)C[C@H]12 [IMI, Imipenem]	–	–	–	2 (≈ 6.68 µM)	0.25 (≈ 0.835 µM)	0.5 (≈ 1.67 µM)	–
O=C(N[C@H](CO)[C@H](O)c1ccc([N+](=O)[O-])cc1)C(Cl)Cl [CHL, Chloramphenicol]	–	–	–	8 (≈ 24.8 µM)	4 (≈ 12.4 µM)	16 (≈ 49.5 µM)	–
CO/N=C(\C(=O)N[C@@H]1C(=O)N2C(C(=O)O)=C(CSc3nc(=O)c(=O)[nH]n3C)CS[C@H]12)c1csc(N)n1 [AXO, Ceftriaxone]	32 to 64 (≈ 57.7 to 115 µM)	< 8	16 (≈ 28.9 µM)	–	–	–	–
CO[C@@]1(NC(=O)Cc2cccs2)C(=O)N2C(C(=O)O)=C(COC(N)=O)CS[C@@H]21 [FOX, Cefoxitin]	–	–	–	> 32	> 32	> 32	–
Trimethoprim/Sulfamethoxazole [SXT]	–	–	–	–	–	–	MIC ([1]; L. rhamnosus GG, GPN3F plate): >4/76; MIC ([2]; GPN3F plate): >4/76; MIC ([3]; MM33, GPN3F plate): >4/76
CCCCCCCCCC(=O)N[C@@H](Cc1c[nH]c2ccccc12)C(=O)N[C@H](CC(N)=O)C(=O)N[C@@H](CC(=O)O)C(=O)N[C@@H]1C(=O)NCC(=O)N[C@@H](CCCN)C(=O)N[C@@H](CC(=O)O)C(=O)N[C@H](C)C(=O)N[C@@H](CC(=O)O)C(=O)NCC(=O)N[C@H](CO)C(=O)N[C@@H]([C@H](C)CC(=O)O)C(=O)N[C@@H](CC(=O)c2ccccc2N)C(=O)O[C@@H]1C [DAP, Daptomycin]	2 (≈ 1.23 µM)	0.5 to 1 (≈ 0.309 to 0.617 µM)	1 (≈ 0.617 µM)	–	–	–	–
CO[C@@]1(NC(=O)C2SC(=C(C(N)=O)C(=O)O)S2)C(=O)N2C(C(=O)O)=C(CSc3nnnn3C)CS[C@@H]21 (stereo partly drawn) [TANS, Cefotetan]	–	–	–	> 64	> 64	> 64	–
Quinupristin/Dalfopristin [SYN]	–	–	–	–	–	–	MIC ([1]; L. rhamnosus GG, GPN3F plate): 1 to 2 µg/mL; MIC ([2]; GPN3F plate): 4 µg/mL; MIC ([3]; MM33, GPN3F plate): 1 µg/mL
C[C@@H](O)[C@H]1C(=O)N2C(C(=O)O)=C(S[C@@H]3CN[C@H](C(=O)N(C)C)C3)[C@H](C)[C@H]12 [MERO, Meropenem]	–	–	–	8 (≈ 20.9 µM)	< 0.5	2 (≈ 5.22 µM)	–
CN(C)[C@@H]1C(O)=C(C(N)=O)C(=O)[C@@]2(O)C(O)=C3C(=O)c4c(O)cccc4[C@@](C)(O)[C@H]3C[C@@H]12 [TET, Tetracycline]	< 2	< 2	> 16	1 (≈ 2.25 µM)	0.375 (≈ 0.844 µM)	> 8	–
CC(=O)NC[C@H]1CN(c2ccc(N3CCOCC3)c(F)c2)C(=O)O1 [LZD, Linezolid]	1 to 2 (≈ 2.96 to 5.93 µM)	2 (≈ 5.93 µM)	4 to 8 (≈ 11.9 to 23.7 µM)	–	–	–	–
CCN1CCN(C(=O)N[C@@H](C(=O)N[C@@H]2C(=O)N3[C@@H]2SC(C)(C)[C@@H]3C(=O)O)c2ccccc2)C(=O)C1=O [PIP, Piperacillin]	–	–	–	< 4	< 4	8 (≈ 15.5 µM)	–
O=C(O)c1cn(C2CC2)c2cc(N3CCNCC3)c(F)cc2c1=O [CIP, Ciprofloxacin]	1 (≈ 3.02 µM)	2 (≈ 6.04 µM)	–	–	–	–	–
[H]/N=C(/N)N[C@H]1[C@H](O)[C@@H](O)[C@H](O[C@@H]2O[C@@H](C)[C@](O)(C=O)[C@H]2O[C@@H]2O[C@@H](CO)[C@H](O)[C@@H](O)[C@@H]2NC)[C@@H](N/C(N)=N\[H])[C@@H]1O [STR, Streptomycin]	< 1000	< 1000	< 1000	–	–	–	–
Ampicillin/Sulbactam [A/S]	–	–	–	–	–	–	MIC ([3]; MM33, ANO2 plate): 4/2
CO[C@H]1/C=C/O[C@@]2(C)Oc3c(C)c(O)c4c(O)c(c(/C=N/N5CCN(C)CC5)c(O)c4c3C2=O)NC(=O)/C(C)=C\C=C\[C@H](C)[C@H](O)[C@@H](C)[C@@H](O)[C@@H](C)[C@H](OC(C)=O)[C@@H]1C [RIF, Rifampin]	< 0.5	> 4	0.5 to 1 (≈ 0.608 to 1.22 µM)	–	–	–	–
Gentamicin	–	–	–	–	–	–	MIC ([1]; L. rhamnosus GG, GPN3F plate): <2 µg/mL; MIC ([2]; GPN3F plate): 2 to 4 µg/mL; MIC ([3]; MM33, GPN3F plate): <2 µg/mL
Cc1ncc([N+](=O)[O-])n1CCO [MRD, Metronidazole]	–	–	–	> 16	> 16	> 16	–
CC[C@H](C)[C@H](N)C1=N[C@H](C(=O)N[C@@H](CC(C)C)C(=O)N[C@H](CCC(=O)O)C(=O)N[C@H](C(=O)N[C@H]2CCCCNC(=O)[C@H](CC(N)=O)NC(=O)[C@@H](CC(=O)O)NC(=O)[C@H](Cc3cnc[nH]3)NC(=O)[C@@H](Cc3ccccc3)NC(=O)[C@H]([C@@H](C)CC)NC(=O)[C@@H](CCCN)NC2=O)[C@@H](C)CC)CS1 [Bacitracin] ({Ileψ(thiazoline)Cys}-L[dE]IK[dOrn]I[dF]H[dD]N; lactam 4-C)	–	–	–	–	–	–	Mice colonized with VRE (%) ([4]; 0 days after VRE infection): 0%; Mice colonized with VRE (%) ([4]; 1 day after VRE infection): 100%; Mice colonized with VRE (%) ([4]; 3 days after VRE infection): 0%; Mice colonized with VRE (%) ([4]; 6 days after VRE infection): 100%; Mice colonized with VRE (%) ([4]; 8 days after VRE infection): 100%; Mice colonized with VRE (%) ([4]; 12 days after VRE infection): 100%; VRE population (in words) ([4]; after the treatment was discontinued): reappeared; Level of VRE in feces (in words) ([4]; day 3, 600 units/d orally for three days after infection): undetectable level
Oxacillin + 2% NaCl [OXA+]	–	–	–	–	–	–	MIC ([1]; L. rhamnosus GG, GPN3F plate): 0.25 to 0.5 µg/mL; MIC ([2]; GPN3F plate): 1 µg/mL; MIC ([3]; MM33, GPN3F plate): 2 µg/mL
COc1c(N2CCNC(C)C2)c(F)cc2c(=O)c(C(=O)O)cn(C3CC3)c12 (stereo not drawn) [GAT, Gatofloxacin]	–	–	–	–	–	–	MIC ([1]; L. rhamnosus GG, GPN3F plate): <1 µg/mL; MIC ([2]; GPN3F plate): <1 µg/mL; MIC ([3]; MM33, GPN3F plate): <1 µg/mL
Penicillin	–	–	–	–	–	–	MIC ([1]; L. rhamnosus GG, ANO2 plate): 0.5 µg/mL; MIC ([1]; L. rhamnosus GG, GPN3F plate): 0.5 µg/mL; MIC ([2]; ANO2 plate): 0.5 µg/mL; MIC ([2]; GPN3F plate): 0.25 to 0.5 µg/mL; MIC ([3]; MM33, ANO2 plate): 1 µg/mL; MIC ([3]; MM33, GPN3F plate): 0.5 µg/mL
